According to article PMC4619705 (PLoS ONE, 2015):
“Also recorded” adds a separate entry of the source.

Assays:
Assay type in all cases: cell-based
β3γ2L GABAARs = target: T1, β3γ2L GABAARs (Homo sapiens, UniProt P18507+P28472); test: Two-electrode voltage clamp of β3γ2L GABAARs expressed at various β3:γ2L mRNA ratios in Xenopus oocytes; conditions: for EC50: EC50 (95% CI) of direct activation; for Effect of Zn2+ alone on baseline current: 100 μM
T1 construct: expressed in transfected cells; host or cells: Xenopus laevis oocytes injected with β3 and γ2L mRNAs at 1:1 to 1:100
Excerpt: (§1) Human complementary DNA (cDNA) of GABAAR α2 subunit (vector: pCMV6-XL5) was purchased from OriGene Technologies (Rockville, MD, USA), and the human β3 (vector: pGEMHE) and γ2L (vector: pCDM8) subunits were generous gifts from Dr. Bjarke Ebert (H. Lundbeck A/S, Valby, Denmark) and Dr. Paul Whiting (Merck, Sharp and Dohme Research Laboratories, Harlow, Essex, UK) respectively. […] Plasmid vectors with the cDNA incorporated were linearised using appropriate restriction endonucleases (α2: SmaI; β3: NheI; γ2L: NotI). Capped RNA transcripts were synthesised from linearised plasmids using the mMessage mMachine T7 transcript kit from Ambion (Austin, TX, USA). Purified messenger RNA (mRNA) was dissolved in nuclease-free water (Ambion, Austin, TX, USA), and its quality was assessed using 1% agarose gel electrophoresis. The concentration of each subunit mRNA was measured using Nanodrop ND-100 UV-Vis spectrophotometer (Thermo Fisher Scientific, North Ryde, NSW, Australia).
Various combinations of α2, β3 and γ2L subunit mRNAs were mixed to different ratios as stated in the text, and diluted accordingly to a concentration of 5 ng/μL (unless otherwise stated). […] Injected oocytes were stored in ND96 storage solution supplemented with 50 μg/mL gentamycin and tetracycline at 18°C. Two-electrode voltage clamp recordings were performed on oocytes 2–4 days post-injection at room temperature (20–25°C) using a GeneClamp 500B amplifier (ADInstruments, Sydney, NSW, Australia) or a Warner OC-725C Oocyte Clamp (Warner Instrument Corp, Hamden, CT, USA). […] The recording microelectrodes (0.2–1.1 MΩ) were generated from capillary glass (Harvard Apparatus, Holliston, MA, USA) using a single-stage glass microelectrode puller (Narishige, Tokyo, Japan), and were filled with 3 M KCl solution. The perfusion system was built using a series of polycarbonate, high-density polyethylene two-way stopcocks (Qosina, Edgewood, NY, USA), connected through tubing to the recording chamber (100 μL), where the oocyte was continuously perfused with ND96 recording solution (96 mM NaCl, 2 mM KCl, 1 mM MgCl2, 1.8 mM CaCl2, 5 mM HEPES hemisodium; pH 7.4) at an approximate rate of 5 mL/min.
(§2) Perfusates containing these chemicals were made up fresh before each application. The concentration-response curves of agonists were obtained by exposing oocytes to increasing concentrations of agonists until the currents peaked. […] All experiments were performed using at least two different batches of oocytes.
(§3) Prism (version 5.04; GraphPad Software, La Jolla, CA, USA) was used for data analysis.
(§4) In all cases, we constrained the bottom to 0, and when fitting data to the biphasic model, the Hill slopes were constrained to 1. Statistical comparisons of results for different injection ratios of β3γ2L receptors were performed using ANOVA with Tukey’s post-hoc test. When comparing results from different injection ratios of β3γ2L receptors with α2β3γ2L receptors, the ANOVA Dunnett’s test was used. Pairwise comparisons were performed using Student’s t test. Statistical significance was attained at p < 0.05.

α2β3 GABAARs = target: T2, α2β3 GABAARs (Homo sapiens, UniProt P28472+P47869); test: Two-electrode voltage clamp of binary α2β3 GABAARs expressed in Xenopus oocytes; conditions: α2β3 20:1; 100 μM
T2 construct: expressed in transfected cells; host or cells: Xenopus laevis oocytes injected with capped mRNA, α2:β3 20:1
T2 sequence (P47869 29-451): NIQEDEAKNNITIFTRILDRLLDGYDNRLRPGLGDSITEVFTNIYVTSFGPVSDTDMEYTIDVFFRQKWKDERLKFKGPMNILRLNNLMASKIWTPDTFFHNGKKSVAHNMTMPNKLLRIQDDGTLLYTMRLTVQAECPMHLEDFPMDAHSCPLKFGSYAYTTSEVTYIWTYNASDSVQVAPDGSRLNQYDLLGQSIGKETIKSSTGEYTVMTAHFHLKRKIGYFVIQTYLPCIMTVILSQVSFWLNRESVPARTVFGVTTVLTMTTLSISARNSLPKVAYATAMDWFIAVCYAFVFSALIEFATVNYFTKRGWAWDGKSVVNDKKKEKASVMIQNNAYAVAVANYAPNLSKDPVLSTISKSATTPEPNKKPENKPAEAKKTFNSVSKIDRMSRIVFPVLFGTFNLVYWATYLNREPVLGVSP
T2 sequence (P28472 26-473): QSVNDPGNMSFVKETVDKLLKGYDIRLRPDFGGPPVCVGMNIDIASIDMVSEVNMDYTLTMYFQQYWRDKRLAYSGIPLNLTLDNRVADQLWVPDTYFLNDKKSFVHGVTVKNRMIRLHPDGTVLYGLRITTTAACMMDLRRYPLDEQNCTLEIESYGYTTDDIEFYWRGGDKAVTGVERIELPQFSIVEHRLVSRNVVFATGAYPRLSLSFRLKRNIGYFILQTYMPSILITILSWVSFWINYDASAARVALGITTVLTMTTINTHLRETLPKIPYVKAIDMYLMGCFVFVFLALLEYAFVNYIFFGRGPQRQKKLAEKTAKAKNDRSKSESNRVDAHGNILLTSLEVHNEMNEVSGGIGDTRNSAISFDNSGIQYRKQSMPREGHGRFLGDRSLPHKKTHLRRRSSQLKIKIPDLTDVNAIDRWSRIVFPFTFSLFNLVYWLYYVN
Excerpt: as §1
(§5) Various combinations of α2, β3 and γ2L subunit mRNAs were mixed to different ratios as stated in the text, and diluted accordingly to a concentration of 5 ng/μL (unless otherwise stated). […] Injected oocytes were stored in ND96 storage solution supplemented with 50 μg/mL gentamycin and tetracycline at 18°C. Two-electrode voltage clamp recordings were performed on oocytes 2–4 days post-injection at room temperature (20–25°C) using a GeneClamp 500B amplifier (ADInstruments, Sydney, NSW, Australia) or a Warner OC-725C Oocyte Clamp (Warner Instrument Corp, Hamden, CT, USA). All experiments were conducted at a holding potential of –60 mV, and data were acquired with a PowerLab 2/25, and LabChart (version 5.0.2) software (ADInstruments, Sydney, NSW, Australia). The recording microelectrodes (0.2–1.1 MΩ) were generated from capillary glass (Harvard Apparatus, Holliston, MA, USA) using a single-stage glass microelectrode puller (Narishige, Tokyo, Japan), and were filled with 3 M KCl solution. The perfusion system was built using a series of polycarbonate, high-density polyethylene two-way stopcocks (Qosina, Edgewood, NY, USA), connected through tubing to the recording chamber (100 μL), where the oocyte was continuously perfused with ND96 recording solution (96 mM NaCl, 2 mM KCl, 1 mM MgCl2, 1.8 mM CaCl2, 5 mM HEPES hemisodium; pH 7.4) at an approximate rate of 5 mL/min.
as §2, §3, §4

γ2L homomeric receptors = target: T3, γ2L homomeric receptors (Homo sapiens, UniProt P18507); test: Two-electrode voltage clamp of γ2L homomeric receptors expressed in Xenopus oocytes; conditions: 100 μM
T3 construct: expressed in transfected cells; host or cells: Xenopus laevis oocytes injected with γ2L mRNA alone (high amounts)
Excerpt: as §1, §5, §2

α2γ2L receptors = target: T4, α2γ2L receptors (Homo sapiens, UniProt P18507+P47869); test: Two-electrode voltage clamp of binary α2γ2L receptors expressed in Xenopus oocytes
T4 construct: expressed in transfected cells; host or cells: Xenopus laevis oocytes injected with α2 and γ2L mRNAs
Excerpt: as §1, §5, §2

β3 homomeric receptors = target: T5, β3 homomeric receptors (Homo sapiens, UniProt P28472); test: Two-electrode voltage clamp of β3 homomeric receptors expressed in Xenopus oocytes; conditions: β3 homomeric receptors; 0.1–300 μM etomidate
T5 construct: expressed in transfected cells; host or cells: Xenopus laevis oocytes injected with β3 mRNA (5 ng/oocyte)
T5 sequence (P28472 26-473): T2 sequence (P28472 26-473)
Excerpt: as §1, §5, §2
Prism (version 5.04; GraphPad Software, La Jolla, CA, USA) was used for data analysis. […]

T1 sequence (P18507 40-475, one chain of several): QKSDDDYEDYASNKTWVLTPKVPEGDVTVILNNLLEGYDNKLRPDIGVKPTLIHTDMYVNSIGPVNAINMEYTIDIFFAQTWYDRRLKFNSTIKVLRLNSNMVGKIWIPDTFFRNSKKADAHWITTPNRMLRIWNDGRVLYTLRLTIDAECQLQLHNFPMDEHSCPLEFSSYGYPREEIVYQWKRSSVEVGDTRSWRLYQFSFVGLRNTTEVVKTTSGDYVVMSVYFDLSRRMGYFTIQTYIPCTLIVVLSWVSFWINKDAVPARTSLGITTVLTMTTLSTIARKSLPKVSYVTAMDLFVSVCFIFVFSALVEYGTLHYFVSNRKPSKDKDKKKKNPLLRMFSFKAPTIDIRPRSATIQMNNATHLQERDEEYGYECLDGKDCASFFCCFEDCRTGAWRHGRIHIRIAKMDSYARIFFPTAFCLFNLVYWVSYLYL
T3 sequence (P18507 40-475): as the sequence (P18507 40-475, one chain of several) above
T4 sequence (P18507 40-475, one chain of several): as above

CC(C)c1cccc(C(C)C)c1O [Propofol]
EC50 (β3γ2L GABAARs; β3γ2L 1:15, -60 mV): 85 µM
EC50 (β3γ2L GABAARs; β3γ2L 1:100, -60 mV): 74 µM
E max ± SEM (300 μM propofol-elicited current normalised against 3 mM GABA response) (β3γ2L GABAARs; β3γ2L 1:15, -60 mV): 5.7 ± 0.55
n H ± SEM (Hill slope) of direct activation (β3γ2L GABAARs; β3γ2L 1:15, -60 mV): 1.4 ± 0.50
E max ± SEM (300 μM propofol-elicited current normalised against 3 mM GABA response) (β3γ2L GABAARs; β3γ2L 1:15, -60 mV, listed as propofol): approximately 6
E max ± SEM (300 μM propofol-elicited current normalised against 3 mM GABA response) (β3γ2L GABAARs; β3γ2L 1:100, -60 mV): 0.64 ± 0.23
n H ± SEM (Hill slope) of direct activation (β3γ2L GABAARs; β3γ2L 1:100, -60 mV): 2.0 ± 1.2

[Cl-].[Cl-].[Zn+2] [Zn^2+, zinc chloride]
Effect of Zn2+ alone on baseline current (α2β3 GABAARs): lack of activity
Effect of Zn2+ alone on constitutive activity (γ2L homomeric receptors; 28–35 ng/oocyte): inhibited
Effect of Zn2+ alone (α2γ2L receptors; α2γ2L 1:1, 100 μM): no function
Effect of Zn2+ alone on baseline current (β3γ2L GABAARs; β3γ2L 1:15): reduction in inward current; also recorded: sensitive to the inhibition
Effect of Zn2+ alone on baseline current (β3γ2L GABAARs; β3γ2L 1:50): did not have any effects
Effect of Zn2+ alone on baseline current (β3γ2L GABAARs; β3γ2L 1:100): did not have any effects

CCOC(=O)c1cncn1[C@H](C)c1ccccc1 [Etomidate]
Direct activation by etomidate (γ2L homomeric receptors; γ2L alone): not sensitive; also recorded: did not activate
Direct activation by etomidate (α2γ2L receptors; α2γ2L, data not shown): did not activate
E max, normalised against 60 mM GABA (β3 homomeric receptors): 15 ± 0.79
E max ± SEM (300 μM etomidate-elicited current normalised against 3 mM GABA response) (β3γ2L GABAARs; β3γ2L 1:15, -30 mV): 9.9 ± 0.84
n H ± SEM (Hill slope) of direct activation (β3γ2L GABAARs; β3γ2L 1:15, -30 mV): 1.3 ± 0.33
E max ± SEM (30 μM etomidate-elicited current normalised against 3 mM GABA response) (β3γ2L GABAARs; β3γ2L 1:15, -60 mV): 20 ± 1.8
n H ± SEM (Hill slope) of direct activation (β3γ2L GABAARs; β3γ2L 1:15, -60 mV): 2.0 ± 0.32
E max ± SEM (300 μM etomidate-elicited current normalised against 3 mM GABA response) (β3γ2L GABAARs; β3γ2L 1:50, -60 mV): 5.5 ± 0.80
n H ± SEM (Hill slope) of direct activation (β3γ2L GABAARs; β3γ2L 1:50, -60 mV): 1.3 ± 0.37
E max ± SEM (300 μM etomidate-elicited current normalised against 3 mM GABA response) (β3γ2L GABAARs; β3γ2L 1:100, -30 mV): 2.8 ± 0.50
n H ± SEM (Hill slope) of direct activation (β3γ2L GABAARs; β3γ2L 1:100, -30 mV): 1.2 ± 0.50
E max ± SEM (300 μM etomidate-elicited current normalised against 3 mM GABA response) (β3γ2L GABAARs; β3γ2L 1:100, -60 mV): 3.2 ± 0.40
n H ± SEM (Hill slope) of direct activation (β3γ2L GABAARs; β3γ2L 1:100, -60 mV): 1.5 ± 0.46
